Source: BigSolDB 2.1

O=C1NC(=O)c2cc([N+](=O)[O-])ccc21
Conditions	solubility (mole fraction)
in 1,4-dioxane, 283.15 K	0.0228
in 1,4-dioxane, 285.65 K	0.0238
in 1,4-dioxane, 288.15 K	0.0249
in 1,4-dioxane, 293.15 K	0.0271
in 1,4-dioxane, 295.65 K	0.0282
in 1,4-dioxane, 298.15 K	0.0295
in 1,4-dioxane, 303.15 K	0.0318
in 1,4-dioxane, 305.65 K	0.0331
in 1,4-dioxane, 308.15 K	0.0345
in 1,4-dioxane, 313.15 K	0.0371
in 1,4-dioxane, 315.65 K	0.0384
in 1,4-dioxane, 318.15 K	0.0399
in 1,4-dioxane, 323.15 K	0.0425
in 2-butanone, 273.15 K	0.0161
in 2-butanone, 275.65 K	0.0169
in 2-butanone, 278.15 K	0.0177
in 2-butanone, 283.15 K	0.0195
in 2-butanone, 285.65 K	0.0205
in 2-butanone, 288.15 K	0.0215
in 2-butanone, 293.15 K	0.0234
in 2-butanone, 295.65 K	0.0244
in 2-butanone, 298.15 K	0.0256
in 2-butanone, 303.15 K	0.0279
in 2-butanone, 305.65 K	0.029
in 2-butanone, 308.15 K	0.0302
in 2-butanone, 313.15 K	0.0327
in 2-butanone, 315.65 K	0.0339
in 2-butanone, 318.15 K	0.0353
in 2-butanone, 323.15 K	0.038
in DMF, 273.15 K	0.0357
in DMF, 275.65 K	0.039
in DMF, 278.15 K	0.0425
in DMF, 283.15 K	0.0497
in DMF, 285.65 K	0.0535
in DMF, 288.15 K	0.0586
in DMF, 293.15 K	0.0682
in DMF, 295.65 K	0.0732
in DMF, 298.15 K	0.0789
in DMF, 303.15 K	0.0912
in DMF, 305.65 K	0.0976
in DMF, 308.15 K	0.104
in DMF, 313.15 K	0.12
in DMF, 315.65 K	0.128
in DMF, 318.15 K	0.137
in DMF, 323.15 K	0.155
in acetone, 273.15 K	0.0175
in acetone, 275.65 K	0.0185
in acetone, 278.15 K	0.0193
in acetone, 283.15 K	0.0211
in acetone, 285.65 K	0.022
in acetone, 288.15 K	0.023
in acetone, 293.15 K	0.025
in acetone, 295.65 K	0.0261
in acetone, 298.15 K	0.0271
in acetone, 303.15 K	0.0293
in acetone, 305.65 K	0.0305
in acetone, 308.15 K	0.0317
in acetone, 313.15 K	0.034
in acetone, 315.65 K	0.0353
in acetone, 318.15 K	0.0366
in acetone, 323.15 K	0.0392
in acetonitrile, 273.15 K	0.00359
in acetonitrile, 275.65 K	0.00382
in acetonitrile, 278.15 K	0.00403
in acetonitrile, 283.15 K	0.00449
in acetonitrile, 285.65 K	0.00474
in acetonitrile, 288.15 K	0.00503
in acetonitrile, 293.15 K	0.00555
in acetonitrile, 295.65 K	0.00584
in acetonitrile, 298.15 K	0.00618
in acetonitrile, 303.15 K	0.00679
in acetonitrile, 305.65 K	0.00709
in acetonitrile, 308.15 K	0.00749
in acetonitrile, 313.15 K	0.00822
in acetonitrile, 315.65 K	0.00858
in acetonitrile, 318.15 K	0.00894
in acetonitrile, 323.15 K	0.00976
in benzyl alcohol, 273.15 K	0.0134
in benzyl alcohol, 275.65 K	0.0143
in benzyl alcohol, 278.15 K	0.0154
in benzyl alcohol, 283.15 K	0.0175
in benzyl alcohol, 285.65 K	0.0188
in benzyl alcohol, 288.15 K	0.0202
in benzyl alcohol, 293.15 K	0.023
in benzyl alcohol, 295.65 K	0.0245
in benzyl alcohol, 298.15 K	0.0261
in benzyl alcohol, 303.15 K	0.0294
in benzyl alcohol, 305.65 K	0.0312
in benzyl alcohol, 308.15 K	0.0331
in benzyl alcohol, 313.15 K	0.0372
in benzyl alcohol, 315.65 K	0.0393
in benzyl alcohol, 318.15 K	0.0417
in benzyl alcohol, 323.15 K	0.0466
in chloroform, 273.15 K	0.000535
in chloroform, 275.65 K	0.000577
in chloroform, 278.15 K	0.000625
in chloroform, 283.15 K	0.000722
in chloroform, 285.65 K	0.000775
in chloroform, 288.15 K	0.000837
in chloroform, 293.15 K	0.000959
in chloroform, 295.65 K	0.00102
in chloroform, 298.15 K	0.00109
in chloroform, 303.15 K	0.00124
in chloroform, 305.65 K	0.00131
in chloroform, 308.15 K	0.0014
in chloroform, 313.15 K	0.0016
in chloroform, 315.65 K	0.00169
in chloroform, 318.15 K	0.00178
in chloroform, 323.15 K	0.00201
in cyclohexanone, 273.15 K	0.0295
in cyclohexanone, 275.65 K	0.0307
in cyclohexanone, 278.15 K	0.0321
in cyclohexanone, 283.15 K	0.0352
in cyclohexanone, 285.65 K	0.0367
in cyclohexanone, 288.15 K	0.0387
in cyclohexanone, 293.15 K	0.0422
in cyclohexanone, 295.65 K	0.044
in cyclohexanone, 298.15 K	0.0461
in cyclohexanone, 303.15 K	0.0506
in cyclohexanone, 305.65 K	0.0527
in cyclohexanone, 308.15 K	0.0552
in cyclohexanone, 313.15 K	0.0604
in cyclohexanone, 315.65 K	0.0629
in cyclohexanone, 318.15 K	0.0655
in cyclohexanone, 323.15 K	0.0708
in ethanol, 273.15 K	0.000713
in ethanol, 275.65 K	0.000799
in ethanol, 278.15 K	0.000897
in ethanol, 283.15 K	0.00112
in ethanol, 285.65 K	0.00123
in ethanol, 288.15 K	0.00137
in ethanol, 293.15 K	0.00166
in ethanol, 295.65 K	0.00183
in ethanol, 298.15 K	0.00201
in ethanol, 303.15 K	0.00244
in ethanol, 305.65 K	0.00265
in ethanol, 308.15 K	0.00288
in ethanol, 313.15 K	0.00347
in ethanol, 315.65 K	0.00378
in ethanol, 318.15 K	0.00405
in ethanol, 323.15 K	0.00479
in ethyl acetate, 273.15 K	0.00919
in ethyl acetate, 275.65 K	0.00981
in ethyl acetate, 278.15 K	0.0104
in ethyl acetate, 283.15 K	0.0117
in ethyl acetate, 285.65 K	0.0123
in ethyl acetate, 288.15 K	0.0131
in ethyl acetate, 293.15 K	0.0146
in ethyl acetate, 295.65 K	0.0155
in ethyl acetate, 298.15 K	0.0163
in ethyl acetate, 303.15 K	0.0181
in ethyl acetate, 305.65 K	0.019
in ethyl acetate, 308.15 K	0.02
in ethyl acetate, 313.15 K	0.022
in ethyl acetate, 315.65 K	0.0231
in ethyl acetate, 318.15 K	0.0243
in ethyl acetate, 323.15 K	0.0266
in isopropanol, 273.15 K	0.000586
in isopropanol, 275.65 K	0.000643
in isopropanol, 278.15 K	0.000741
in isopropanol, 283.15 K	0.000937
in isopropanol, 285.65 K	0.00104
in isopropanol, 288.15 K	0.00115
in isopropanol, 293.15 K	0.00143
in isopropanol, 295.65 K	0.00159
in isopropanol, 298.15 K	0.00175
in isopropanol, 303.15 K	0.00214
in isopropanol, 305.65 K	0.00234
in isopropanol, 308.15 K	0.00257
in isopropanol, 313.15 K	0.00311
in isopropanol, 315.65 K	0.0034
in isopropanol, 318.15 K	0.0037
in isopropanol, 323.15 K	0.00443
in methanol, 273.15 K	0.0014
in methanol, 275.65 K	0.00151
in methanol, 278.15 K	0.00167
in methanol, 283.15 K	0.00196
in methanol, 285.65 K	0.00212
in methanol, 288.15 K	0.00233
in methanol, 293.15 K	0.00272
in methanol, 295.65 K	0.00295
in methanol, 298.15 K	0.00318
in methanol, 303.15 K	0.00372
in methanol, 305.65 K	0.00397
in methanol, 308.15 K	0.00427
in methanol, 313.15 K	0.00493
in methanol, 315.65 K	0.00527
in methanol, 318.15 K	0.00566
in methanol, 323.15 K	0.00646
